What all share (assay): NCI tumour cell line growth inhibition, 48 h
Test [1] deals with RXF 393 renal.
In test [2] the test system is U251 CNS.
Test [3] concerns SNB-75 CNS.
Test [4] has as its system OVCAR-3 ovarian.
Test [5] deals with KM12 colon.
The subject of test [6] is HCT-15 colon.
Test [7] has as its system BT-549 breast.
Test [8] deals with MDA-MB-231 breast.

Where “and” joins values, the source holds several entries; their conditions need not be identical. Identical values can stand only once.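 All cell lines were grown in 96-well plates and treated with compound for 48 hours. GI50 marks 50% less growth. Definition used: TGI = concentration required for complete inhibition of growth.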

In the case of `C[C@@H]1CC[C@@]2(OC1)O[C@H]1C[C@H]3[C@@H]4CC=C5C[C@@H](O[C@@H]6O[C@H](CO)[C@@H](O[C@@H]7O[C@@H](CO)[C@H](O)[C@H]7O)[C@H](O)[C@H]6O[C@@H]6O[C@@H](C)[C@H](O)[C@@H](O)[C@H]6O)CC[C@]5(C)[C@H]4CC[C@]3(C)[C@H]1[C@@H]2C`, the GI50 in test [1] is 0.388 µM; in test [2], 1.01 µM; in test [3], 1.18 µM; in test [4] it was 1.75 µM; in test [6] it was 1.12 µM; in test [7], 1.5 µM. Moreover, the GI50 in test [8] is 0.514 µM. In addition, the TGI in test [1] was found to be 1.58 µM; in test [2], 2.17 µM; in test [3], 2.46 µM; in test [4], 3.12 µM; in test [5] it was 2.15 µM; in test [6], 2.46 µM. Moreover, the TGI in test [7] came to 2.94 µM; in test [8], 1.77 µM.
`CC(=O)OC1CCC2(C)C(=CC(C3C=C4CC(OC(C)=O)CCC4(C)C4=C3C3CC5OC6(CCC(C)CO6)C(C)C5C3(C)CC4)C3=C2CCC2(C)C3CC3OC4(CCC(C)CO4)C(C)C32)C1` (stereo not drawn): the TGI in test [1] stood at 31.5 µM; in test [2] it was 27.8 µM; in test [3], 29.9 µM; in test [4] it was 28.6 µM; in test [5] it was 35.7 µM; in test [6], 28.4 µM. The results for the TGI in test [7] and in test [8] were 29.7 µM and 32 µM, respectively.
Take `O=c1[nH]c(-c2ccc(C(F)(F)F)cc2)nc2c1CSCC2`: the GI50 in test [1] is 19.6 µM; in test [2], 17.9 µM; in test [3], 21.2 µM; in test [4], 27 µM; in test [5], over 100 µM; in test [6] it was over 100 µM. The GI50 was over 94.3 µM in test [7] and 40.4 µM in test [8]. Moreover, the TGI in test [1] was 65.8 µM; in test [2] it was over 89.6 µM; in test [3], 56.2 µM; in test [4], over 100 µM; in test [5], over 100 µM; in test [6] it was over 100 µM. Also, the TGI in test [7] and in test [8] was over 100 µM in each case.
For `CCNCC(O)c1ccc(N)c([N+](=O)[O-])c1` (stereo not drawn), the TGI in test [2], in test [3], in test [4], in test [6], in test [7] and in test [8] was over 100 µM in each case.
Take `COc1ccc(C(O)c2cc3c(N)c(C(=O)Nc4cccc(Br)c4)sc3nc2C)cc1` (stereo not drawn): the GI50 was 0.119 µM in test [2]; 0.0693 µM in test [3]; 0.0949 µM in test [4]; 0.117 µM in test [5]; 0.121 µM in test [6]; 0.17 µM in test [7]. Further, the GI50 in test [8] was 0.104 µM. Moreover, the TGI is over 41.1 µM in test [2]; 0.322 µM in test [4]; over 43 µM in test [6]; over 23.2 µM in test [7]; 1.63 µM in test [8].
As for `COc1ccc(NC(=O)c2cc(OC)c(OC)c(OC)c2)cc1O`, the GI50 in test [1] is 3.75 µM; in test [2], 3.71 µM; in test [3], 1.56 µM; in test [5], 0.792 µM; in test [6], 1.46 µM; in test [7], 21.7 µM. Also, the GI50 in test [8] is 6.79 µM. In addition, the TGI in test [1] was 83.9 µM; in test [2], over 100 µM; in test [3], over 100 µM; in test [5] it was over 100 µM; in test [6], over 100 µM; in test [7] it was over 100 µM. In test [8], this compound gave a TGI of over 100 µM.
With `CN(C)c1ccc(/C=C/c2ccnc3ccccc23)cc1`, the GI50 in test [1] is 13.4 µM; in test [2] it was 4.04 µM; in test [3], 2.41 µM; in test [4], 2.71 µM; in test [5] it was 3.11 µM; in test [6] it was 3.76 µM. For the same compound, the GI50 is 1.88 µM in test [7] and 5.36 µM in test [8]. The TGI in test [1] is over 100 µM; in test [2], > 100 µM and 63.4 µM; in test [3] it was > 100 µM and 11.9 µM; in test [5], > 100 µM and 33.7 µM; in test [6], over 100 µM; in test [7] it was > 100 µM and 14.6 µM. In test [8], the TGI is > 100 µM and 30 µM.
With `FC(F)(F)c1ccc(-c2cnc(Br)nc2NC2CCCCCC2)cc1`, the GI50 was 24.9 µM in test [1]; 75 µM in test [2]; over 100 µM in test [3]; 70.8 µM in test [4]; 52 µM in test [5]; 55.2 µM in test [6]. The GI50 is 72.9 µM in test [7] and 12.3 µM in test [8]. Also, the TGI in test [1], in test [2], in test [3], in test [4], in test [5] and in test [6] was over 100 µM each time. The TGI in test [7] and in test [8] was over 100 µM in each case.
Consider `CN(Cc1cnc2nc(N)nc(N)c2n1)c1ccc(C(=O)NC(CCC(=O)O)C(=O)O)cc1` (stereo not drawn), for which the TGI in test [1], in test [2], in test [3], in test [4], in test [5] and in test [6] was over 100 µM throughout. Further, the TGI in test [7] and in test [8] was over 100 µM throughout. For the same compound, the GI50 was 0.435 µM in test [2]; over 100 µM in test [3]; 1.23 µM in test [4]; 0.0875 µM in test [5]; 0.0623 µM in test [6]; 6.51 µM in test [7]. Besides, in test [8], the GI50 was over 24 µM.
Consider `COc1ccc2c(c1)OC13Oc4cc(OC)ccc4C=C1CCCC3=C2`, for which the GI50 in test [1] is over 100 µM; in test [2] it was over 100 µM; in test [5], 18.7 µM; in test [6], over 100 µM; in test [7], over 100 µM; in test [8] it was over 100 µM. The TGI in test [1], in test [2], in test [5], in test [6], in test [7] and in test [8] was over 100 µM each time.
For the compound `C=C(C)C1/C=C(/C(C)C)CC[C@]2(C)O[C@@H]2CC[C@H](C)CC1=O` (stereo partly drawn), the GI50 was 32 µM in test [1]; 54.7 µM in test [2]; 25.4 µM in test [4]; 58.1 µM in test [5]; over 100 µM in test [6]. In addition, the TGI is over 100 µM in test [1]; over 100 µM in test [2]; 81.1 µM in test [4]; over 100 µM in test [5]; over 100 µM in test [6].
`Cn1c(=O)c2[nH]c(COc3ccc(C(C)(C)C)cc3)nc2n(C)c1=O`: the GI50 in test [1] was 57 µM; in test [2], 37.5 µM; in test [4], 12.3 µM; in test [5] it was 15.9 µM; in test [6], 19.9 µM; in test [8], 41.4 µM. The TGI was over 100 µM in test [1]; over 100 µM in test [2]; 33.6 µM in test [4]; 44 µM in test [5]; over 100 µM in test [6]; over 100 µM in test [8].
As to `CC[C@H](C)[C@H](NC(=O)C12C3C4C1C1C2C3C41NC(C)=O)C(=O)N(C)[C@H](C[C@@H](OC(C)=O)c1nc(C(=O)N[C@@H](Cc2ccccc2)C[C@H](C)C(=O)OC)cs1)C(C)C` (stereo partly drawn), the GI50 is 0.434 µM in test [2]; 0.109 µM in test [3]; 0.0565 µM in test [4]; 0.471 µM in test [5]; 2.41 µM in test [6]; 0.146 µM in test [7]. The GI50 in test [8] was 0.435 µM. The TGI is over 14.3 µM in test [2]; over 14.3 µM in test [3]; 1.08 µM in test [4]; over 14.3 µM in test [5]; over 14.3 µM in test [6]; 3.84 µM in test [7]. Moreover, the TGI in test [8] is over 14.3 µM.
Consider `CCCC[C@@H](COC(=O)N(Cc1cccs1)Cc1cccs1)NC(=O)N[C@@H](CC(=O)OC)c1ccc2c(c1)OCO2`, for which the GI50 in test [1], in test [2], in test [3], in test [4], in test [5] and in test [6] was over 100 µM throughout. The GI50 in test [7] is over 100 µM. Moreover, the TGI in test [1], in test [2], in test [3], in test [4], in test [5] and in test [6] was over 100 µM in each case. Besides, the TGI in test [7] was over 100 µM.
With `CC/C=C\CCC/C=C1/C(=O)C=C[C@@H]1C/C=C\CCCC(=O)O`, the GI50 in test [1] was 3.68 µM; in test [2], 3.7 µM; in test [3] it was 18 µM; in test [4], 3.36 µM; in test [5] it was 2.46 µM; in test [6], 1.93 µM. Besides, the GI50 in test [8] is 5.55 µM. Further, the TGI in test [1] was determined as 10.3 µM; in test [2] it was 13.6 µM; in test [3], 44.9 µM; in test [4], 10.9 µM; in test [5] it was 6.62 µM; in test [6] it was 4.52 µM. The TGI in test [8] is 22.5 µM.
Regarding `CC(=O)/C(C)=N/N/C(N)=N\S(=O)(=O)c1cc(C(=O)Nc2ccccc2)c(Cl)cc1SCc1ccccc1`, the GI50 in test [2] is 27.7 µM; in test [3], over 100 µM; in test [4] it was over 100 µM; in test [5] it was 60.2 µM; in test [6], over 100 µM; in test [7], 23.8 µM. In test [8], the GI50 was 5.94 µM. In addition, the TGI in test [2], in test [3], in test [4], in test [5], in test [6] and in test [7] was over 100 µM throughout. This compound came in with a TGI in test [8] of over 100 µM.
Consider `COc1ccc(/C=C2\COc3ccc(-c4ccccc4)cc3C2=O)cc1O`, for which the GI50 in test [2] was 1.83 µM; in test [3], 2.71 µM; in test [4], 1.76 µM; in test [5], 1.75 µM; in test [6] it was 1.69 µM; in test [7] it was 1.69 µM. In test [8], the GI50 is 3.98 µM. For the same compound, the TGI in test [2] worked out at 4.27 µM; in test [3], 8.77 µM; in test [4], 4.97 µM; in test [5], 4.09 µM; in test [6] it was 4.37 µM; in test [7], 5.57 µM. Further, the TGI in test [8] stood at 20.2 µM.
For `O=C(NNS(=O)(=O)c1cc(C(F)(F)F)cc(C(F)(F)F)c1)c1cnn(-c2ccc(Cl)cc2)c1C(F)(F)F`, the GI50 in test [2] was 17.3 µM; in test [3] it was 24.4 µM; in test [4], 15.3 µM; in test [5], 18.5 µM; in test [6], 16 µM; in test [7], 14.5 µM. Moreover, the GI50 in test [8] is 19.6 µM. In addition, the TGI is 35.3 µM in test [2]; 75.3 µM in test [3]; 33.4 µM in test [4]; 39.9 µM in test [5]; 37.5 µM in test [6]; 28 µM in test [7]. The compound further returned a TGI in test [8] of 40.3 µM.
As for `O=C(/C=C/c1cccc(Cl)c1)c1ccc(Cl)cc1Cl`, the GI50 in test [2] was 8.37 µM; in test [3], 9.5 µM; in test [4], 8.54 µM; in test [5] it was 9.76 µM; in test [6], 12.2 µM; in test [7], 8.94 µM. In addition, the GI50 in test [8] was 13 µM. Further, the TGI in test [2] was 21.1 µM; in test [3], 30.1 µM; in test [4] it was 17.3 µM; in test [5], 21.6 µM; in test [6], over 50 µM; in test [7], 20.7 µM. Also, the TGI in test [8] came out at 34.7 µM.
As for `C=C(C)[C@H]1CC/C(C)=C/CCC(C)C(=O)CC/C(CO)=C\[C@@H]1O` (stereo partly drawn), the GI50 is over 100 µM in test [1]; 90.3 µM in test [2]; over 100 µM in test [4]; over 100 µM in test [5]; 5.47 µM in test [6]; 88.1 µM in test [7]. Also, the GI50 in test [8] was over 100 µM. The TGI in test [1], in test [2], in test [4], in test [5], in test [6] and in test [7] was over 100 µM throughout. Also, the TGI in test [8] is over 100 µM.
